# Measured values: PubChem BioAssay AID256 (DTP/NCI, 2004)
# “And” between values parts separate entries of the source, which are not always exact repeats. Identical values can stand only once. Toxic doses and inconclusive results are not listed.
# Test system: CD2F1 mice, L1210 leukemia ip, survival T/C
# Test: NCI In Vivo Anticancer Drug Screen. Data for tumor model L1210 Leukemia (intraperitoneal) in CD2F1 (CDF1) mice
# Settings: higher = longer survival
# In short: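 Tumor-bearing mice (transplanted tumor) were split into treated and vehicle control groups, and the measured endpoint of each treated group was divided by that of its vehicle controls.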
# [1] = endpoint: mean survival time, dose: 100.0 mg/kg/injection, schedule: Q04DX003 (ip), vehicle: saline with Tween-80
# [2] = endpoint: mean survival time, dose: 200.0 mg/kg/injection, schedule: Q04DX003 (ip), vehicle: saline with Tween-80
# [3] = endpoint: mean survival time, dose: 50.0 mg/kg/injection, schedule: Q04DX003 (ip), vehicle: Klucel (hydroxypropylcellulose) (HPC)
# [4] = endpoint: mean survival time, dose: 100.0 mg/kg/injection, schedule: Q04DX003 (ip), vehicle: saline
smiles,measurement,setting,value
C[N+](C)(C)C,T/C,"endpoint: mean survival time, dose: 5.0 mg/kg/injection, schedule: Q01DX001 (ip), vehicle: saline",98 % of control
same,T/C,"endpoint: mean survival time, dose: 5.0 mg/kg/injection, schedule: Q01DX009 (ip), vehicle: saline sonified",95 % of control
same,T/C,"endpoint: mean survival time, dose: 5.0 mg/kg/injection, schedule: Q04DX003 (ip), vehicle: saline",100 % of control
same,T/C,"endpoint: mean survival time, dose: 6.25 mg/kg/injection, schedule: Q01DX009 (ip), vehicle: saline with Tween-80",96 % of control
same,T/C,"endpoint: mean survival time, dose: 10.0 mg/kg/injection, schedule: Q01DX009 (ip), vehicle: saline sonified",87 % of control
same,T/C,"endpoint: mean survival time, dose: 20.0 mg/kg/injection, schedule: Q01DX001 (ip), vehicle: saline",98 % of control
Nc1ccc(OC(=O)Oc2ccc(N)cc2)cc1,T/C,"endpoint: mean survival time, dose: 18.75 mg/kg/injection, schedule: Q06HX068 (ip), vehicle: other",87 % of control
same,T/C,"endpoint: mean survival time, dose: 18.75 mg/kg/injection, schedule: Q#A X034 (ip), vehicle: other",100 % of control
same,T/C,"endpoint: mean survival time, dose: 37.5 mg/kg/injection, schedule: Q01DX017 (ip), vehicle: other",106 % of control
same,T/C,"endpoint: mean survival time, dose: 37.5 mg/kg/injection, schedule: Q#A X034 (ip), vehicle: other",103 % of control
same,T/C,"endpoint: mean survival time, dose: 75.0 mg/kg/injection, schedule: Q01DX001 (ip), vehicle: other",100 % of control
same,T/C,"endpoint: mean survival time, dose: 75.0 mg/kg/injection, schedule: Q01DX005 (ip), vehicle: other",112 % of control
same,T/C,"endpoint: mean survival time, dose: 150.0 mg/kg/injection, schedule: Q01DX001 (ip), vehicle: other",102 % of control
same,T/C,"endpoint: mean survival time, dose: 150.0 mg/kg/injection, schedule: Q01DX017 (ip), vehicle: other",154 % of control
same,T/C,"endpoint: mean survival time, dose: 150.0 mg/kg/injection, schedule: Q#A X034 (ip), vehicle: other",155 % of control
same,T/C,"endpoint: mean survival time, dose: 300.0 mg/kg/injection, schedule: Q01DX001 (ip), vehicle: other",103 % of control
CCCC1CCC(=C2C(=O)CCC2=O)O1 (stereo unspecified),T/C,"endpoint: median survival time, dose: 25.0 mg/kg/injection, schedule: Q01DX009 (ip), vehicle: saline with Tween-80",98 % of control
same,T/C,"endpoint: median survival time, dose: 50.0 mg/kg/injection, schedule: Q01DX009 (ip), vehicle: saline with Tween-80",100 % of control
same,T/C,"endpoint: median survival time, dose: 100.0 mg/kg/injection, schedule: Q01DX009 (ip), vehicle: saline with Tween-80",100 % of control
same,T/C,"endpoint: median survival time, dose: 200.0 mg/kg/injection, schedule: Q01DX009 (ip), vehicle: saline with Tween-80",102 % of control
CCCC(C)C1(CC)NC(C)(C)CC(C)O1 (stereo unspecified),T/C,[1],103 % of control
same,T/C,[2],87 % of control
NC1CCC(C(=O)O)CC1 (stereo unspecified),T/C,"endpoint: mean survival time, dose: 25.0 mg/kg/injection, schedule: Q01DX009 (ip), vehicle: saline",105 % of control
same,T/C,"endpoint: mean survival time, dose: 50.0 mg/kg/injection, schedule: Q01DX009 (ip), vehicle: saline",97 % of control and 105 % of control
same,T/C,"endpoint: mean survival time, dose: 100.0 mg/kg/injection, schedule: Q01DX009 (ip), vehicle: saline",94 % of control and 102 % of control
same,T/C,"endpoint: mean survival time, dose: 200.0 mg/kg/injection, schedule: Q01DX009 (ip), vehicle: saline",102 % of control
O=c1[nH]cnc2c1ncn2C1OC(CO)C(O)C1O.O=c1[nH]cnc2c1ncn2C1OC(CO)C(O)C1O.[Cl][Pt][Cl] (stereo unspecified),T/C,"endpoint: mean survival time, dose: 12.5 mg/kg/injection, schedule: Q01DX009 (ip), vehicle: water",103 % of control
same,T/C,"endpoint: mean survival time, dose: 25.0 mg/kg/injection, schedule: Q01DX009 (ip), vehicle: water",101 % of control
same,T/C,"endpoint: mean survival time, dose: 50.0 mg/kg/injection, schedule: Q01DX009 (ip), vehicle: water",101 % of control
same,T/C,"endpoint: mean survival time, dose: 100.0 mg/kg/injection, schedule: Q01DX009 (ip), vehicle: water",101 % of control
same,T/C,"endpoint: mean survival time, dose: 200.0 mg/kg/injection, schedule: Q01DX009 (ip), vehicle: water",97 % of control
CCn1c(=N)sc2ccc(C(=O)OC)cc21,T/C,"endpoint: mean survival time, dose: 12.5 mg/kg/injection, schedule: Q04DX002 (ip), vehicle: saline with Tween-80",101 % of control
same,T/C,"endpoint: mean survival time, dose: 25.0 mg/kg/injection, schedule: Q04DX002 (ip), vehicle: saline with Tween-80",96 % of control
same,T/C,"endpoint: mean survival time, dose: 50.0 mg/kg/injection, schedule: Q04DX002 (ip), vehicle: saline with Tween-80",90 % of control
same,T/C,[2],88 % of control
C/C=C(\C)C(=O)OC1C(C)C2(O)C(C=C(CO)CC3(O)C(=O)C(C)=CC32)C2C(C)(C)C12OC(=O)CCCCCCCCC (stereo unspecified),T/C,"endpoint: mean survival time, dose: 125.0 micrograms/kg/injection, schedule: Q01DX009 (ip), vehicle: saline + alcohol",90 % of control
same,T/C,"endpoint: mean survival time, dose: 250.0 micrograms/kg/injection, schedule: Q01DX009 (ip), vehicle: saline + alcohol",95 % of control
C=C(Br)CNCCCCCC,T/C,"endpoint: mean survival time, dose: 12.5 mg/kg/injection, schedule: Q04DX003 (ip), vehicle: Klucel (hydroxypropylcellulose) (HPC)",97 % of control
same,T/C,"endpoint: mean survival time, dose: 25.0 mg/kg/injection, schedule: Q04DX003 (ip), vehicle: Klucel (hydroxypropylcellulose) (HPC)",100 % of control
same,T/C,[3],94 % of control
N#Cc1cnc(N)[nH]c1=O,T/C,"endpoint: mean survival time, dose: 50.0 mg/kg/injection, schedule: Q01DX009 (ip), vehicle: Klucel (hydroxypropylcellulose) (HPC)",88 % of control
same,T/C,"endpoint: mean survival time, dose: 100.0 mg/kg/injection, schedule: Q01DX009 (ip), vehicle: Klucel (hydroxypropylcellulose) (HPC)",88 % of control
same,T/C,"endpoint: mean survival time, dose: 200.0 mg/kg/injection, schedule: Q01DX009 (ip), vehicle: Klucel (hydroxypropylcellulose) (HPC)",91 % of control
CC1=C(C)CS(=O)(=O)N(c2ccccc2)C1,T/C,"endpoint: mean survival time, dose: 100.0 mg/kg/injection, schedule: Q01DX001 (ip), vehicle: saline with Tween-80",101 % of control
same,T/C,"endpoint: mean survival time, dose: 100.0 mg/kg/injection, schedule: Q01DX009 (ip), vehicle: saline with Tween-80",98 % of control
same,T/C,"endpoint: mean survival time, dose: 200.0 mg/kg/injection, schedule: Q01DX001 (ip), vehicle: saline with Tween-80",98 % of control
same,T/C,"endpoint: mean survival time, dose: 200.0 mg/kg/injection, schedule: Q01DX009 (ip), vehicle: saline with Tween-80",95 % of control
same,T/C,"endpoint: mean survival time, dose: 400.0 mg/kg/injection, schedule: Q01DX001 (ip), vehicle: saline with Tween-80",86 % of control
same,T/C,"endpoint: mean survival time, dose: 400.0 mg/kg/injection, schedule: Q01DX009 (ip), vehicle: saline with Tween-80",95 % of control
COC(=O)C1C2CCCN2OC1(C)CO (stereo unspecified),T/C,"endpoint: median survival time, dose: 7.5 mg/kg/injection, schedule: Q01DX005 (ip), vehicle: saline",98 % of control
same,T/C,"endpoint: median survival time, dose: 15.0 mg/kg/injection, schedule: Q01DX005 (ip), vehicle: saline",101 % of control
same,T/C,"endpoint: median survival time, dose: 30.0 mg/kg/injection, schedule: Q01DX005 (ip), vehicle: saline",96 % of control
same,T/C,"endpoint: median survival time, dose: 60.0 mg/kg/injection, schedule: Q01DX005 (ip), vehicle: saline",106 % of control
same,T/C,"endpoint: median survival time, dose: 120.0 mg/kg/injection, schedule: Q01DX005 (ip), vehicle: saline",104 % of control
C/C=C1\C(=O)O[C@@]23C=C[C@H]4C(C(=O)OC)=CO[C@@H](O[C@H]12)[C@H]43,T/C,"endpoint: mean survival time, dose: 50.0 mg/kg/injection, schedule: Q01DX001 (ip), vehicle: saline",95 % of control
Nc1ccc(CNC(=O)Nc2ccc(S(=O)(=O)F)cc2)cc1,T/C,"endpoint: mean survival time, dose: 25.0 mg/kg/injection, schedule: Q04DX003 (ip), vehicle: saline with Tween-80",95 % of control
same,T/C,"endpoint: mean survival time, dose: 50.0 mg/kg/injection, schedule: Q04DX003 (ip), vehicle: saline with Tween-80",91 % of control
same,T/C,[1],110 % of control
same,T/C,[2],92 % of control
same,T/C,"endpoint: mean survival time, dose: 400.0 mg/kg/injection, schedule: Q04DX003 (ip), vehicle: saline with Tween-80",92 % of control
Nc1cc(=O)[nH]c(=S)n1-c1ccccn1,T/C,[4],101 % of control
same,T/C,"endpoint: mean survival time, dose: 200.0 mg/kg/injection, schedule: Q04DX003 (ip), vehicle: saline",95 % of control
same,T/C,"endpoint: mean survival time, dose: 400.0 mg/kg/injection, schedule: Q04DX003 (ip), vehicle: saline",97 % of control
COC(=O)C(C)NC(=O)C(CO)NC(=O)c1cnc2ccccc2n1 (stereo unspecified),T/C,"endpoint: mean survival time, dose: 100.0 mg/kg/injection, schedule: Q01DX001 (ip), vehicle: saline",98 % of control
same,T/C,"endpoint: mean survival time, dose: 200.0 mg/kg/injection, schedule: Q01DX001 (ip), vehicle: saline",102 % of control
same,T/C,"endpoint: mean survival time, dose: 400.0 mg/kg/injection, schedule: Q01DX001 (ip), vehicle: saline",94 % of control
CC(C)NC(=O)CCCCN(C(=O)OCc1ccccc1)N(C)C(=O)OCc1ccccc1,T/C,[3],100 % of control
same,T/C,"endpoint: mean survival time, dose: 100.0 mg/kg/injection, schedule: Q04DX003 (ip), vehicle: Klucel (hydroxypropylcellulose) (HPC)",91 % of control
same,T/C,"endpoint: mean survival time, dose: 200.0 mg/kg/injection, schedule: Q04DX003 (ip), vehicle: Klucel (hydroxypropylcellulose) (HPC)",106 % of control
same,T/C,"endpoint: mean survival time, dose: 400.0 mg/kg/injection, schedule: Q04DX003 (ip), vehicle: Klucel (hydroxypropylcellulose) (HPC)",95 % of control
c1ccc(-c2n[nH]c3ccccc23)cc1,T/C,"endpoint: median survival time, dose: 50.0 mg/kg/injection, schedule: Q04DX002 (ip), vehicle: saline with Tween-80",100 % of control
same,T/C,"endpoint: median survival time, dose: 100.0 mg/kg/injection, schedule: Q04DX002 (ip), vehicle: saline with Tween-80",100 % of control
same,T/C,"endpoint: median survival time, dose: 200.0 mg/kg/injection, schedule: Q04DX002 (ip), vehicle: saline with Tween-80",100 % of control
O=C(C[n+]1cccc(C(=O)NCc2ccccc2)c1)NCc1ccccc1,T/C,"endpoint: mean survival time, dose: 25.0 mg/kg/injection, schedule: Q04DX003 (ip), vehicle: saline",103 % of control
same,T/C,"endpoint: mean survival time, dose: 50.0 mg/kg/injection, schedule: Q04DX003 (ip), vehicle: saline",101 % of control
same,T/C,[4],98 % of control
